Measured values published in patent US20230102247A1, “METHODS AND COMPOSITIONS RELATING TO IONIC LIQUID ADJUVANTS” (PRESIDENT AND FELLOWS OF HARVARD COLLEGE, priority 2020, published 2023).
Structures can show the parent of a compound that is named as a salt. Where two headings read alike, the source gives them in different places.

Tests used:
[1] = cited from earlier work
[2] = system: infiltrating immune cells at the injection site; settings: subcutaneous, 24 h
Protocol: (§1) Female Balb/C mice (6-8-week-old) were purchased from Charles River Laboratories. All experiments were performed according to the approved protocols by the Institutional Animal Care and Use Committee (IACUC) of the Faculty of Arts and Sciences (FAS), Harvard University, Cambridge.
Balb/c mice were subcutaneously injected in the back with 50 μL of saline, CoLa or alum (n=4 for all groups). […] Undigested tissue was removed by 70 μm mesh filtration. The suspension was centrifuged at 400×g for 10 min. The supernatant was removed via pipetting and 2 mL ACK lysing buffer (Thermo Fisher) was added to the pellet. After 5 min the suspensions were centrifuged again and resuspended with 2 mL FCS blocking buffer.

[3] = system: immune response to OVA
Protocol: as §1
Balb/c mice were subcutaneously injected in the back with 50 μL of OVA-saline, OVA-CoLa or alum (n=8 for all groups). A total of three injections were given on day 0, day 7 and day 14. On day 19, the mice were euthanized, blood and spleen were collected for further analysis.
Blood was centrifuged at 5000 rpm for 10 minutes at 4° C. to separate the serum from the cells. Anti-OVA IgG titer was measured as previously described^13.

[4] = molecular target: T1, OVA (Gallus gallus, UniProt P01012); settings: 10% w/v CoLa in saline, compared to alum
T1 sequence (P01012 whole entry): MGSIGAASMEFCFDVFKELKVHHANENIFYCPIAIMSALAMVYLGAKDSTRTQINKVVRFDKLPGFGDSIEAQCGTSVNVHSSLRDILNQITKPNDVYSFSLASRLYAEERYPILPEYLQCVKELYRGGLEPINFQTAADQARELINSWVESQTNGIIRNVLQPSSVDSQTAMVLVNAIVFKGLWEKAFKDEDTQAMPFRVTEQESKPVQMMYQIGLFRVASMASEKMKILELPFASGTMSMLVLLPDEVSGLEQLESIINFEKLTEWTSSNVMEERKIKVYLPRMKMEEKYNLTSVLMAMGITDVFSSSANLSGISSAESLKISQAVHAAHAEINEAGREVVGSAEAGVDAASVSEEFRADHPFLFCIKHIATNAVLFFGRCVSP
Protocol: For the CoLa adjuvant formulation, 10% w/v CoLa was added unless specified. Adsorbed OVA was quantified using a plate reader (Spectramax i3™)

[5] = molecular target: T1, OVA
Protocol: OVA containing solutions (0.5 mg mL-1) and complete medium (DMEM+10% FBS) were mixed to a total volume of 500 μL and incubated at 37° C. on a tube revolver. At regular time points, the suspensions were centrifuged at 12 000×g for 15 min and the supernatant was collected for analysis. The pellet was further resuspended in 400 μL fresh release media and incubated until the next time point.

[6] = molecular target: T1, OVA; remark: listed apart in the source
Protocol: An SDS-PAGE assay was carried out to assess OVA aggregation from the OVA-CoLa or alum samples. 1 mg mL-1 OVA in 10% v/v CoLa or 2% alum were incubated for 1 h at room temperature (25° C.). OVA in saline was used as a negative control. […] Before electrophoresis, all samples were centrifuged at 5000×g for 5 min to discard any undissolved residue and the clear supernatants were adjusted to equivalent protein concentration. […] The protein bands were stained with Bio-Safe Coomassie stain (BioRad) for observation according to the manufacturer's protocol. Circular dichroism spectrophotometry (Jasco J-1500, Easton) was performed in the far-UV region (190-250 nm) to collect spectra. The three OVA (0.5 mg mL-1) containing formulations were centrifuged for 10 min at 10,000×g. The supernatant was removed via pipetting, while the soft OVA pellet at the bottom of the tube was not disturbed. The pellet was washed with 1 mL PBS and centrifuged again to remove the supernatant. The washing/centrifugation steps were repeated until no OVA pellet was formed during centrifugation. Rectangular quartz cells with a 1 mm path length (1-Q-1) were loaded with 400 μL of a sample. As a control spectrum, OVA in PBS was used. Each spectrum was the average of three scans.

CCCCC(CC)COS(=O)(=O)O (stereo not drawn) [2-Ethylhexyl sulfate]
LogP [1]: 3.10

CC(C)=CC(=O)O [3,3-dimethylacrylic acid]
LogP [1]: 1.2

O=S(=O)(O)c1ccc(O)cc1 [4-hydroxybenzenesulfonic acid]
LogP ([1]; exemplary anions): 0.2

O=C(O)c1cccc(-c2ccccc2)c1 [Biphenyl-3-carboxylic acid]
LogP ([1]; exemplary anions): 3.5

CC(O)C(=O)O.CC(O)C(=O)[O-].C[N+](C)(C)CCO [CoLa, Choline lactate (1:2)]
infiltrating CD8 cells [2]: no such effect | CD86 (activation marker) on infiltrating dendritic cells ([2]; compared to the controls): significant increase | increase in infiltration of CD4 cells ([2]; compared to the controls): ~25% | higher infiltration of dendritic cells ([2]; compared to untreated and alum-treated mice): 20% | Th2 response, as assessed by anti-OVA IgG ([3]; compared to alum): non-significant Th2 response | Th1 response ([3]; injections day 0, 7, 14, analysis day 19): strong Th1 response | activated dendritic cells (CD80) ([3]; spleen, CoLa versus alum): significantly higher | increase in IFN-γ+CD4 cells ([3]; spleen, compared to alum): ~3 fold | increase in the number of CD4 cells ([3]; spleen, compared to both the other groups): 50% | increase in the CD8 cells ([3]; spleen, compared to the controls): 5 fold | increase in natural killer (NK) cells ([3]; spleen, compared to the saline group): ~1.8 fold | OVA adsorption on adjuvant [4]: lower adsorption | time over which adsorbed OVA was released ([5]; 10% w/v CoLa in saline, DMEM+10% FBS, 37° C.): 24 h | release of adsorbed OVA ([5]; compared to alum): faster release | secondary structure of OVA (CD analysis) [6]: preserved | molecular integrity of adsorbed OVA (SDS-PAGE) ([6]; similar to alum and saline): maintained the molecular integrity

O=C(O)[C@H](O)[C@@H](O)[C@H](O)[C@H](O)CO [Gluconic acid]
LogP ([1]; exemplary anions): −3.4

O=C(O)CO [Glycolic acid]
LogP ([1]; exemplary anions): −1.11

O=C(O)CCc1ccccc1 [Hydrocinnamic acid]
LogP ([1]; exemplary anions): 1.84

CC(C)C(=O)O [Isoburtyric acid]
LogP ([1]; exemplary anions): 0.94

O=C(O)/C=C\C(=O)O [Maleic acid]
LogP ([1]; exemplary anions): −0.48

O=P(O)(O)Oc1ccccc1 [Phenylphosphoric acid]
LogP ([1]; exemplary anions): 1.05

CCC(=O)O [Propanoic acid]
LogP ([1]; exemplary anions): 0.33
